The values that follow come from PubChem BioAssay AID248 (DTP/NCI, 2004).

For the test, the system named is L1210 leukemia ip in BDF1 mice, survival T/C. Kind of test: NCI In Vivo Anticancer Drug Screen. Data for tumor model L1210 Leukemia (intraperitoneal) in B6D2F1 (BDF1) mice. To be noted: endpoint: mean survival time, higher = longer survival. In outline:
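Tumor cells were implanted, animals were treated, and survival was followed. The result divides the treated measurement by the vehicle-control measurement.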

[1] abbreviates: dose: 50.0 mg/kg/injection, schedule: Q01DX009 (ip), vehicle: saline with Tween-80.
[2] abbreviates: dose: 100.0 mg/kg/injection, schedule: Q01DX009 (ip), vehicle: saline with Tween-80.
Setting [3] is: dose: 200.0 mg/kg/injection, schedule: Q01DX009 (ip), vehicle: saline with Tween-80.
Setting [4] is: dose: 100.0 mg/kg/injection, schedule: Q01DX001 (ip), vehicle: saline.
[5] abbreviates: dose: 100.0 mg/kg/injection, schedule: Q04DX003 (ip), vehicle: saline.
[6] abbreviates: dose: 200.0 mg/kg/injection, schedule: Q01DX001 (ip), vehicle: saline.
[7] abbreviates: dose: 200.0 mg/kg/injection, schedule: Q04DX003 (ip), vehicle: saline.
The mark [8] stands for this setting: dose: 400.0 mg/kg/injection, schedule: Q01DX001 (ip), vehicle: saline.
Setting [9] is: dose: 400.0 mg/kg/injection, schedule: Q04DX003 (ip), vehicle: saline.

Values joined by “and” are separate entries in the source; they are usually repeats but may differ in a detail not shown here. Equal values may be shown once. Toxic doses and inconclusive results are not listed.

On to `Cc1ccc(S(=O)(=O)NC(CCl)=NC2CCCCC2)cc1`, for which the T/C is 96 % of control (dose: 100.0 mg/kg/injection, schedule: Q04DX002 (ip), vehicle: Klucel (hydroxypropylcellulose) (HPC)); 100 % of control (dose: 200.0 mg/kg/injection, schedule: Q04DX002 (ip), vehicle: Klucel (hydroxypropylcellulose) (HPC)); 103 % of control (dose: 400.0 mg/kg/injection, schedule: Q04DX002 (ip), vehicle: Klucel (hydroxypropylcellulose) (HPC)).

For `Cc1nc(N)[nH]c(=O)c1CCCN(c1ccccc1)S(=O)(=O)c1ccc([N+](=O)[O-])cc1`, the T/C (dose: 6.25 mg/kg/injection, schedule: Q01DX001 (ip), vehicle: saline with Tween-80) is 104 % of control; the T/C (dose: 12.5 mg/kg/injection, schedule: Q01DX001 (ip), vehicle: saline with Tween-80) was 100 % of control; the T/C (dose: 25.0 mg/kg/injection, schedule: Q01DX001 (ip), vehicle: saline with Tween-80) is 98 % of control.

As to `CCOC(=O)C(N)Cc1ccc(OC)c(N(CCCl)CCCl)c1` (stereo unspecified), the T/C is 112 % of control (dose: 0.21 mg/kg/injection, schedule: Q01DX009 (ip), vehicle: carboxymethylcellulose (CMC)); 112 % of control (dose: 0.32 mg/kg/injection, schedule: Q01DX009 (ip), vehicle: carboxymethylcellulose (CMC)); 122 % of control (dose: 0.48 mg/kg/injection, schedule: Q01DX009 (ip), vehicle: carboxymethylcellulose (CMC)); 112 % of control (dose: 0.75 mg/kg/injection, schedule: Q01DX009 (ip), vehicle: carboxymethylcellulose (CMC)); 154 % of control (dose: 1.1 mg/kg/injection, schedule: Q01DX009 (ip), vehicle: carboxymethylcellulose (CMC)); 115 % of control (dose: 1.5 mg/kg/injection, schedule: Q01DX001 (ip), vehicle: carboxymethylcellulose (CMC)). The T/C runs as follows: (dose: 1.5 mg/kg/injection, schedule: Q01DX009 (ip), vehicle: carboxymethylcellulose (CMC)) 155 % of control; (dose: 1.7 mg/kg/injection, schedule: Q01DX009 (ip), vehicle: carboxymethylcellulose (CMC)) 160 % of control; (dose: 2.6 mg/kg/injection, schedule: Q01DX001 (ip), vehicle: carboxymethylcellulose (CMC)) 119 % of control; (dose: 2.6 mg/kg/injection, schedule: Q01DX009 (ip), vehicle: carboxymethylcellulose (CMC)) 160 % of control; (dose: 3.0 mg/kg/injection, schedule: Q01DX001 (ip), vehicle: carboxymethylcellulose (CMC)) 117 % of control; (dose: 3.0 mg/kg/injection, schedule: Q01DX009 (ip), vehicle: carboxymethylcellulose (CMC)) 121 % of control. Moreover, the T/C by setting is: (dose: 4.0 mg/kg/injection, schedule: Q01DX009 (ip), vehicle: carboxymethylcellulose (CMC)) 120 % of control; (dose: 9.0 mg/kg/injection, schedule: Q01DX001 (ip), vehicle: carboxymethylcellulose (CMC)) 164 % of control.

Take `CC(C)COC(CN)C(Cl)(Cl)Cl` (stereo unspecified): the T/C is, setting by setting: (dose: 50.0 mg/kg/injection, schedule: Q01DX001 (ip), vehicle: saline with Tween-80) 104 % of control; under setting [1], 94 % of control and 110 % of control; (dose: 50.0 mg/kg/injection, schedule: Q04DX003 (ip), vehicle: saline with Tween-80) 100 % of control; (dose: 100.0 mg/kg/injection, schedule: Q01DX001 (ip), vehicle: saline with Tween-80) 103 % of control; under setting [2], 97 % of control and 92 % of control; (dose: 100.0 mg/kg/injection, schedule: Q04DX002 (ip), vehicle: saline with Tween-80) 103 % of control and 104 % of control. In addition, the T/C (dose: 100.0 mg/kg/injection, schedule: Q04DX003 (ip), vehicle: saline with Tween-80) was 95 % of control; the T/C (dose: 200.0 mg/kg/injection, schedule: Q01DX001 (ip), vehicle: saline with Tween-80) is 97 % of control; the T/C under setting [3] was 93 % of control and 99 % of control; the T/C (dose: 200.0 mg/kg/injection, schedule: Q04DX002 (ip), vehicle: saline with Tween-80) was 95 % of control and 101 % of control; the T/C (dose: 200.0 mg/kg/injection, schedule: Q04DX003 (ip), vehicle: saline with Tween-80) was 92 % of control.

As to `O=C1C=CC(=O)C(SCCC(=O)O)=C1`, the T/C under setting [1] is 102 % of control; the T/C (dose: 100.0 mg/kg/injection, schedule: Q01DX001 (ip), vehicle: carboxymethylcellulose (CMC)) is 101 % of control; the T/C under setting [2] is 97 % of control; the T/C under setting [3] is 96 % of control.

Take `CCOC(=O)Cc1cc(OC)c(OC)c(OC)c1`: the T/C is, setting by setting: (dose: 100.0 mg/kg/injection, schedule: Q04DX003 (ip), vehicle: acetone) 98 % of control; (dose: 200.0 mg/kg/injection, schedule: Q04DX003 (ip), vehicle: acetone) 94 % of control.

Turning to `O=S(=O)(/C=C\c1ccccc1)N1CCCc2ccccc21`, the T/C under setting [4] is 106 % of control; the T/C under setting [5] was 98 % of control; the T/C under setting [6] was 98 % of control; the T/C under setting [7] is 102 % of control; the T/C under setting [8] was 101 % of control; the T/C under setting [9] was 98 % of control.

As for `Cc1cc(N(CCOS(C)(=O)=O)CCOS(C)(=O)=O)ccc1C=Nc1cccc(C(=O)O)c1`, the T/C is, setting by setting: (dose: 2.5 mg/kg/injection, schedule: Q04DX003 (ip), vehicle: Klucel (hydroxypropylcellulose) (HPC)) 111 % of control; (dose: 5.0 mg/kg/injection, schedule: Q04DX003 (ip), vehicle: Klucel (hydroxypropylcellulose) (HPC)) 113 % of control; (dose: 10.0 mg/kg/injection, schedule: Q04DX003 (ip), vehicle: Klucel (hydroxypropylcellulose) (HPC)) 122 % of control; (dose: 20.0 mg/kg/injection, schedule: Q04DX003 (ip), vehicle: Klucel (hydroxypropylcellulose) (HPC)) 120 % of control; (dose: 40.0 mg/kg/injection, schedule: Q04DX003 (ip), vehicle: Klucel (hydroxypropylcellulose) (HPC)) 115 % of control.

For the molecule `C=C(Cl)CSC(=S)N(CC)CC`, the T/C by setting is: (dose: 50.0 mg/kg/injection, schedule: Q01DX009 (ip), vehicle: saline sonified) 94 % of control; (dose: 100.0 mg/kg/injection, schedule: Q01DX009 (ip), vehicle: saline sonified) 94 % of control; under setting [5], 105 % of control; (dose: 200.0 mg/kg/injection, schedule: Q01DX009 (ip), vehicle: saline sonified) 105 % of control; under setting [7], 102 % of control.

Turning to `N#Cc1[nH]cnc1/N=N/N(CCF)CCF`, the T/C reads like this: (dose: 9.5 mg/kg/injection, schedule: Q01DX009 (ip), vehicle: saline with Tween-80) 101 % of control; (dose: 18.0 mg/kg/injection, schedule: Q01DX009 (ip), vehicle: saline with Tween-80) 121 % of control; (dose: 18.0 mg/kg/injection, schedule: Q04DX003 (ip), vehicle: saline with Tween-80) 98 % of control; (dose: 37.0 mg/kg/injection, schedule: Q04DX003 (ip), vehicle: saline with Tween-80) 116 % of control.

With `CS(=O)(=O)OCCN(CCOS(C)(=O)=O)c1ccc(C=Nc2cc(Br)c(O)c(Br)c2)c(Cl)c1`, the T/C reads like this: (dose: 100.0 mg/kg/injection, schedule: Q04DX003 (ip), vehicle: Klucel (hydroxypropylcellulose) (HPC)) 98 % of control; (dose: 200.0 mg/kg/injection, schedule: Q04DX003 (ip), vehicle: Klucel (hydroxypropylcellulose) (HPC)) 98 % of control; (dose: 400.0 mg/kg/injection, schedule: Q04DX003 (ip), vehicle: Klucel (hydroxypropylcellulose) (HPC)) 97 % of control.

Consider `O=[N+]([O-])c1ccc(SC2=NCCCN2)c([N+](=O)[O-])c1`, for which the T/C by setting is: (dose: 12.5 mg/kg/injection, schedule: Q04DX002 (ip), vehicle: Klucel (hydroxypropylcellulose) (HPC)) 106 % of control; (dose: 25.0 mg/kg/injection, schedule: Q04DX002 (ip), vehicle: Klucel (hydroxypropylcellulose) (HPC)) 95 % of control.

For the molecule `CN(C)CNC=O`, the T/C was 86 % of control (dose: 25.0 mg/kg/injection, schedule: Q01DX009 (ip), vehicle: saline); 96 % of control (dose: 50.0 mg/kg/injection, schedule: Q01DX009 (ip), vehicle: saline); 96 % of control and 99 % of control (dose: 100.0 mg/kg/injection, schedule: Q01DX009 (ip), vehicle: saline); 103 % of control under setting [5]; 106 % of control under setting [7]; 97 % of control under setting [9].

`[B-][NH2+]c1ccc([NH2+][B-])cc1`: the T/C by setting is: under setting [4], 96 % of control; under setting [6], 91 % of control; under setting [8], 100 % of control.
